Results as given in patent publication US12691101B2, “Compound and method for preventing or treating of respiratory diseases comprising the same as an active ingredient” (YONSEI UNIVERSITY, UNIVERSITY - INDUSTRY FOUNDATION (UIF), priority 2019, dated 2026).

The molecules below were run against T1, human wild-type (WT)-pendrin (Homo sapiens, UniProt O43511) (assay: Pendrin-mediated Cl^−/I^− exchange activity, YFP fluorescence in CHO-K1 cells). Conditions: not given.
T1 construct: expressed in transfected cells
T1 sequence (O43511 1-780): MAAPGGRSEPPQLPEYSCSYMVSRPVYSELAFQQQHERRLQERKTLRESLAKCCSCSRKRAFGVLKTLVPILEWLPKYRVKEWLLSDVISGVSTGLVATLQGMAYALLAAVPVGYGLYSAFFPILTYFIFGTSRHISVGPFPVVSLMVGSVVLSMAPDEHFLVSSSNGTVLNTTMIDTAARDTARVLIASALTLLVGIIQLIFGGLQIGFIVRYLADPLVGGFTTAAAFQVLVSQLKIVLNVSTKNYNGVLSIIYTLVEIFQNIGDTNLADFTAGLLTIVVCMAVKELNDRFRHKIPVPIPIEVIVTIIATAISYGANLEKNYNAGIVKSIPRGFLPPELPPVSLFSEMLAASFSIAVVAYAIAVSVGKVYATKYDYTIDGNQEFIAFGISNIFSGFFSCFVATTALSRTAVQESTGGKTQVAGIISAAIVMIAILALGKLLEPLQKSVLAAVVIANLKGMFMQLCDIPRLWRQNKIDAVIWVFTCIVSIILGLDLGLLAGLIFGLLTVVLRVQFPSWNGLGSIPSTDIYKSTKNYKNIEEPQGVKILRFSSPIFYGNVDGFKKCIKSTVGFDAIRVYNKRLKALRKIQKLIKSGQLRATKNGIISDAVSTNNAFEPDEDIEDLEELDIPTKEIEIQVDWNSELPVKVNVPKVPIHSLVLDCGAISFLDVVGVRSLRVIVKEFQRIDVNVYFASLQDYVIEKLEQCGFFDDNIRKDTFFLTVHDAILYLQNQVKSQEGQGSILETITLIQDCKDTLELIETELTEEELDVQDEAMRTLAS
Assay type: cell-based
With `CC(C)(C)c1ccc(C(=O)NC(=Cc2ccc[nH]2)C(=O)O)cc1` [G7, 2-(4-(tert-butyl)benzamido)-3-(1H-pyrrol-2-yl)acrylate] the “efficacy as pendrin inhibitor compared with F10” value was “lower efficacy than F10”.

Same assay, conditions: 30 μM
For `O=C(O)C(=Cc1ccco1)NC(=O)c1ccc(Br)cc1` [G21, 2-(4-Bromobenzamido)-3-(furan-2-yl)acrylate], the “Pendrin inhibitory activity at 30 μM (%)” value was 4.1%.
In the case of `Cc1ncsc1C=C(NC(=O)c1ccc(C(C)(C)C)cc1)C(=O)O` [G32, 2-(4-(tert-butyl)benzamido)-3-(4-methylthiazol-5-yl)acrylate], the “Pendrin inhibitory activity at 30 μM (%)” value is reported as 2.1%.

Same assay, conditions: CHO-K1, 30 μM; read-out: Pendrin inhibitory activity at 30 μM (%)
`CC(C)(C)c1ccc(C(=O)NC(=Cc2ccc[nH]2)C(=O)O)cc1` [G7, 2-(4-(tert-butyl)benzamido)-3-(1H-pyrrol-2-yl)acrylate] was tested, and the inhibition at 30 µM was 82.1%.
Work on `CCCc1ccc(C(=O)NC(=Cc2cccs2)C(=O)O)cc1` [G30, 2-(4-Propylbenzamido)-3-(thiophen-2-yl)acrylate] yielded an inhibition at 30 µM of 29.7%.
Work on `O=C1OC(c2ccccc2)=NC1=Cc1ccccc1[N+](=O)[O-]` [F57, 4-(2-Nitrobenzylidene)-2-phenyloxazol-5(4H)-one] yielded an inhibition at 30 µM of 16.1%.
`CN(C)c1ccc(C=C2N=C(c3ccc4ccccc4c3)OC2=O)s1` [F105, 4-((5-(Dimethylamino)thiophen-2-yl)methylene)-2-(naphthalen-2-yl)oxazol-5(4H)-one] gave an inhibition at 30 µM of 3.1%.
`CC(C)(C)c1ccc(C2=NC(=Cc3ccccc3OC(F)F)C(=O)O2)cc1` [F122, 2-(4-(tert-butyl)phenyl)-4-(2-(difluoromethoxy)benzylidene)oxazol-5(4H)-one] showed an inhibition at 30 µM of 3.8%.
`Cc1ncsc1C=C1N=C(c2ccc(-c3ccccc3)cc2)OC1=O` [F24, 2-([1,1′-biphenyl]-4-yl)-4-((4-methylthiazol-5-yl)methylene)oxazol-5 (4H)-one] was tested, and the inhibition at 30 µM was 3.6%.
`CCCCCCc1ccc(C2=NC(=Cc3cccs3)C(=O)O2)cc1` [F139, 2-(4-Hexylphenyl)-4-(thiophen-2-ylmethylene)oxazol-5 (4H)-one] showed an inhibition at 30 µM of 2.5%.
With `O=C1OC(/C=C/c2ccccc2)=NC1=Cc1cccs1` [F110, 2-((E)-styryl)-4-(thiophen-2-ylmethylene)oxazol-5 (4H)-one] the inhibition at 30 µM was 2.9%.
Work on `CC(C)c1ccc(C2=NC(=Cc3cccs3)C(=O)O2)cc1` [F46, 2-(4-Isopropylphenyl)-4-(thiophen-2-ylmethylene)oxazol-5(4H)-one] yielded an inhibition at 30 µM of 53.8%.
Work on `CC(=O)n1cc(C=C2N=C(c3ccc(C(C)(C)C)cc3)OC2=O)c(-c2ccccc2)n1` [F82, 4-((1-Acetyl-3-phenyl-1H-pyrazol-4-yl)methylene)-2-(4-(tert-butyl)phenyl)oxazol-5 (4H)-one] yielded an inhibition at 30 µM of 2.7%.
For `CC(C)(C#N)c1ccc(C2=NC(=Cc3ccc[nH]3)C(=O)O2)cc1` [F148], the inhibition at 30 µM was 100%.
`CCCc1ccc(C(=O)NC(=Cc2ccc[nH]2)C(=O)O)cc1` [G28, 2-(4-Propylbenzamido)-3-(1H-pyrrol-2-yl)acrylate] gave an inhibition at 30 µM of 53.5%.
`Cn1cccc1C=C1N=C(c2ccc(C(C)(C)C)cc2)OC1=O` [F6, 2-(4-(tert-butyl)phenyl)-4-((1-methyl-1H-pyrrol-2-yl)methylene)oxazol-5 (4H)-one] showed an inhibition at 30 µM of 3.7%.
`COc1ccccc1C1=NC(=Cc2ccc(Br)s2)C(=O)O1` [F117, 4-((5-Bromothiophen-2-yl)methylene)-2-(2-methoxyphenyl)oxazol-5(4H)-one] gave an inhibition at 30 µM of 2.3%.
Molecule `O=C1OC(c2ccccc2)=NC1=Cc1cccs1` [F61, 2-Phenyl-4-(thiophen-2-ylmethylene)oxazol-5(4H)-one] has an inhibition at 30 µM of 2.2%.
Work on `O=C1OC(c2ccc(N3CCCC3=O)cc2)=NC1=Cc1cccs1` [F98, 2-(4-(2-oxopyrrolidin-1-yl)phenyl)-4-(thiophen-2-ylmethylene)oxazol-5 (4H)-one] yielded an inhibition at 30 µM of 3.3%.
Work on `CCCc1ccc(C2=NC(=Cc3scnc3C)C(=O)O2)cc1` [F137, 4-((4-Methylthiazol-5-yl)methylene)-2-(4-propylphenyl)oxazol-5(4H)-one] yielded an inhibition at 30 µM of 3.1%.
`CC(=O)Nc1ccc(S(=O)(=O)Oc2ccccc2C=C2N=C(c3ccc(Cl)cc3)OC2=O)cc1` [F77, 2-((2-(4-Chlorophenyl)-5-oxooxazol-4(5H)-ylidene)methyl)phenyl4-acetamido benzenesulfonate] was tested, and the inhibition at 30 µM was 2.6%.
For `COc1ccc(C2=NC(=Cc3cccs3)C(=O)O2)cc1` [F87, 2-(4-Methoxyphenyl)-4-(thiophen-2-ylmethylene)oxazol-5 (4H)-one], the inhibition at 30 µM was 3.6%.
Molecule `COc1cccc(C2=NC(=Cc3cccs3)C(=O)O2)c1` [F104, 2-(3-Methoxyphenyl)-4-(thiophen-2-ylmethylene)oxazol-5(4H)-one] has an inhibition at 30 µM of 3.5%.
With `CC(C)(C)c1ccc(C2=NC(=Cc3cccn3-c3ccccc3)C(=O)O2)cc1` [F27, 2-(4-(tert-butyl)phenyl)-4-((1-phenyl-1H-pyrrol-2-yl)methylene)oxazol-5 (4H)-one] the inhibition at 30 µM was 2.8%.
For `Cc1ncsc1C=C(NC(=O)c1ccc(C(C)(C)C)cc1)C(=O)O` [G9, 2-(4-(tert-butyl)benzamido)-3-(4-methylthiazol-5-yl)acrylate], the inhibition at 30 µM was 3.9%.
Molecule `COc1cc(C2=NC(=Cc3cccs3)C(=O)O2)ccc1OC(F)F` [F102, 2-(4-(Difluoromethoxy)-3-methoxyphenyl)-4-(thiophen-2-ylmethylene)oxazol-5 (4H)-one] has an inhibition at 30 µM of 2.7%.
Molecule `Cc1ccc(C=C2N=C(c3ccc(C(C)(C)C)cc3)OC2=O)s1` [F96, 2-(4-(tert-butyl)phenyl)-4-((5-methylthiophen-2-yl)methylene)oxazol-5(4H)-one] has an inhibition at 30 µM of 3.4%.
In the case of `O=C1OC(c2ccc(Br)cc2)=NC1=Cc1ccco1` [F50, 2-(4-Bromophenyl)-4-(furan-2-ylmethylene)oxazol-5 (4H)-one], the inhibition at 30 µM is reported as 3.7%.
`COC(=O)c1ccc(C2=NC(=Cc3ccco3)C(=O)O2)cc1` [F31, Methyl 4-(4-(furan-2-ylmethylene)-5-oxo-4,5-dihydrooxazol-2-yl)benzoate] was tested, and the inhibition at 30 µM was 4.2%.
Molecule `Cc1nn(-c2ccccc2)c(Cl)c1C=C1N=C(c2cccc(Br)c2)OC1=O` [F71, 2-(3-Bromophenyl)-4-((5-chloro-3-methyl-1-phenyl-1H-pyrazol-4-yl)methylene)oxazol-5(4H)-one] has an inhibition at 30 µM of 4.4%.
In the case of `COc1ccccc1C1=NC(=Cc2cnn(C)c2)C(=O)O1` [F125, 2-(2-methoxyphenyl)-4-((1-methyl-1H-pyrazol-4-yl)methylene)oxazol-5(4H)-one], the inhibition at 30 µM is reported as 1%.
`CC(C)(C)c1ccc(C2=NC(=Cc3ccsc3)C(=O)O2)cc1` [F9, 2-(4-(tert-butyl)phenyl)-4-(thiophen-3-ylmethylene)oxazol-5 (4H)-one] was tested, and the inhibition at 30 µM was 52.5%.
With `Cc1ccc(/C=C2\N=C(c3ccc(C4=N/C(=C\c5ccc(C)o5)C(=O)O4)cc3)OC2=O)o1` [F79, 2,2′-(1,4-phenylene)bis(4-((5-methylfuran-2-yl)methylene)oxazol-5(4H)-one)] the inhibition at 30 µM was 3.2%.
`CCCc1ccc(C2=NC(=Cc3ccsc3)C(=O)O2)cc1` [F145, 2-(4-Propylphenyl)-4-(thiophen-3-ylmethylene)oxazol-5 (4H)-one] was tested, and the inhibition at 30 µM was 20.8%.
In the case of `CCCc1ccc(C2=NC(=Cc3ccco3)C(=O)O2)cc1` [F146, 4-(Furan-2-ylmethylene)-2-(4-propylphenyl)oxazol-5(4H)-one], the inhibition at 30 µM is reported as 26.1%.
`CCCCCc1ccc(C2=NC(=Cc3ccco3)C(=O)O2)cc1` [F141, 4-(Furan-2-ylmethylene)-2-(4-pentylphenyl)oxazol-5(4H)-one] gave an inhibition at 30 µM of 1.9%.
`CC(C)Cc1ccc(C2=NC(=Cc3csc4ccccc34)C(=O)O2)cc1` [F21, 4-(Benzo[b]thiophen-3-ylmethylene)-2-(4-isobutylphenyl)oxazol-5(4H)-one] was tested, and the inhibition at 30 µM was 2.9%.
Work on `CC(C)c1ccc(C2=NC(=Cc3ccco3)C(=O)O2)cc1` [F49, 4-(Furan-2-ylmethylene)-2-(4-isopropylphenyl)oxazol-5 (4H)-one] yielded an inhibition at 30 µM of 89.1%.
`COC(=O)C(=Cc1ccco1)NC(=O)c1ccc(Br)cc1` [G20, Methyl 2-(4-bromobenzamido)-3-(furan-2-yl)acrylate] showed an inhibition at 30 µM of 3.4%.
Molecule `O=C1OC(c2ccccc2I)=NC1=Cc1ccc(-n2cncn2)cc1` [F132, 4-(4-(1H-1,2,4-thiazol-1-yl)benzylidene)-2-(2-iodophenyl)oxazol-5(4H)-one] has an inhibition at 30 µM of 3.9%.
Molecule `CSc1ccc(C=C2N=C(c3ccc(C(C)(C)C)cc3)OC2=O)cc1` [F43, 2-(4-(tert-butyl)phenyl)-4-(4-(methylthio)benzylidene)oxazol-5 (4H)-one] has an inhibition at 30 µM of 5.4%.
For `O=C1OC(c2ccc(C(F)(F)F)cc2)=NC1=Cc1ccc[nH]1` [F17, 4-((1H-pyrrol-2-yl)methylene)-2-(4-(trifluoromethyl)phenyl)oxazol-5(4H)-one], the inhibition at 30 µM was 6.9%.
`CC(C)c1ccc(C2=NC(=Cc3ccsc3)C(=O)O2)cc1` [F47, 2-(4-Isopropylphenyl)-4-(thiophen-3-ylmethylene)oxazol-5(4H)-one] gave an inhibition at 30 µM of 33.2%.
For `O=C1OC(c2ccccc2Cl)=NC1=Cc1cccs1` [F92, 2-(2-Chlorophenyl)-4-(thiophen-2-ylmethylene)oxazol-5(4H)-one], the inhibition at 30 µM was 2.2%.

Same assay, conditions: compounds showing pendrin inhibitory activity of 50% or more at 30 μM; read-out: IC50
`CC(C)(C)c1ccc(C(=O)NC(=Cc2ccc[nH]2)C(=O)O)cc1` [G7, 2-(4-(tert-butyl)benzamido)-3-(1H-pyrrol-2-yl)acrylate] gave an IC50 of 6.8 ± 0.66 µM.
`CC(C)c1ccc(C2=NC(=Cc3cccs3)C(=O)O2)cc1` [F46, 2-(4-Isopropylphenyl)-4-(thiophen-2-ylmethylene)oxazol-5(4H)-one] gave an IC50 of 22.7 ± 2.48 µM.
`CC(C)(C#N)c1ccc(C2=NC(=Cc3ccc[nH]3)C(=O)O2)cc1` [F148] showed an IC50 of 0.2 ± 0.06 µM.
In the case of `CCCc1ccc(C(=O)NC(=Cc2ccc[nH]2)C(=O)O)cc1` [G28, 2-(4-Propylbenzamido)-3-(1H-pyrrol-2-yl)acrylate], the IC50 is reported as 28.9 ± 2.18 µM.
`CC(C)(C)c1ccc(C2=NC(=Cc3ccsc3)C(=O)O2)cc1` [F9, 2-(4-(tert-butyl)phenyl)-4-(thiophen-3-ylmethylene)oxazol-5 (4H)-one] gave an IC50 of 28.7 ± 2.25 µM.
Molecule `CC(C)c1ccc(C2=NC(=Cc3ccco3)C(=O)O2)cc1` [F49, 4-(Furan-2-ylmethylene)-2-(4-isopropylphenyl)oxazol-5 (4H)-one] has an IC50 of 3.9 ± 0.36 µM.
